Source: PMC2248166, “Quantitative peptide binding motifs for 19 human and mouse MHC class I molecules derived using positional scanning combinatorial peptide libraries” (Immunome Research, 2008)
pIC50: −log10 of the molar value. Where a SMILES comes first, the peptide text is derived from it.

Columns and labels:
Format in all cases: binding
[1] = molecular target: HLA A*3201 (Homo sapiens, UniProt P04439, A270S/D101S/D185E/E176V/E277Q/F133L/G103R/G107R/G231S/H175R/I121M/I218V/I322F/K168Q/L105A/L300P/L318F/M331R/P208A/P217A/Q94H/R106L/R138Q/S129P/T104I/T323A/T345S/V100E/V321M/V358M); test: biochemical
[2] = molecular target: HLA B*0801 (Homo sapiens, UniProt P01889, A93T/A95T/D138N/E176V/E187T/K202T/Q94N/R180D/S35A/V36M/Y33D/Y91F); test: biochemical
[3] = molecular target: HLA A*3001 (Homo sapiens, UniProt P04439, D140H/D185E/E176W/F33S/G80R/H175R/K168Q/R138E/R41S); test: biochemical
[4] = molecular target: HLA B*1501 (Homo sapiens, UniProt P01889, A329T/A93T/A95T/C349S/D201E/D98Y/E187L/E204Q/E69M/E70A/K202T/N87E/Q94N/R155S/R180W/S121R/S35A/S48A/V306I/V36M/Y140S/Y91S); test: biochemical
[5] = molecular target: HLA B*1503 (Homo sapiens, UniProt P01889, A329T/A93T/A95T/C349S/D201E/D98Y/E187L/E204Q/K202T/N87E/Q94N/R155S/R180L/S121R/S35A/V306I/V36M/Y140S/Y91S); test: biochemical
[6] = molecular target: HLA B*5401 (Homo sapiens, UniProt P01889, A329T/C349S/D138N/D201E/E176V/E187T/E204Q/E69G/I76V/K202T/L119W/R155S/R180L/S121T/S35A/S48A/V127L/V306I/V36M/Y140L)
[7] = molecular target: H-2 D^d (Mus musculus, UniProt P01900)
H-2 D^d, sequence (P01900 whole entry, looked up): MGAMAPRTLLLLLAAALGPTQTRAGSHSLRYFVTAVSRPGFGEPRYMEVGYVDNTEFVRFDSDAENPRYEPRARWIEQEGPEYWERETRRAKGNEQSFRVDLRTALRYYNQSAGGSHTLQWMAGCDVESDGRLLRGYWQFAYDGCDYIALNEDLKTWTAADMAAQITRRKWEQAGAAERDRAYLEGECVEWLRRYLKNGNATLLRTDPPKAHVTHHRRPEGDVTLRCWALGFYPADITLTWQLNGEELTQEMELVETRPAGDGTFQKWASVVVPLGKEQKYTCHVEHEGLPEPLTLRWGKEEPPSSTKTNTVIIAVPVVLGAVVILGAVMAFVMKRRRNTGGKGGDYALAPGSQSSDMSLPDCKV

[8] = molecular target: HLA B*3501 (Homo sapiens, UniProt P01889, A329T/A93T/A95T/C349S/D201E/D98Y/E176V/E187L/E204Q/E69T/I218V/K202T/L119I/Q94N/R155S/R180L/S121R/S35A/S48A/T118I/V127L/V306I/V36M/Y140S/Y91F)
[9] = molecular target: H-2 K^d (Mus musculus, UniProt P01902)
H-2 K^d, sequence (P01887 21-119): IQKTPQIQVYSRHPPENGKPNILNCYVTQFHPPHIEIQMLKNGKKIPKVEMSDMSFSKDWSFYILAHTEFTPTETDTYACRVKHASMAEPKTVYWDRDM
H-2 K^d, sequence (P01902 22-368): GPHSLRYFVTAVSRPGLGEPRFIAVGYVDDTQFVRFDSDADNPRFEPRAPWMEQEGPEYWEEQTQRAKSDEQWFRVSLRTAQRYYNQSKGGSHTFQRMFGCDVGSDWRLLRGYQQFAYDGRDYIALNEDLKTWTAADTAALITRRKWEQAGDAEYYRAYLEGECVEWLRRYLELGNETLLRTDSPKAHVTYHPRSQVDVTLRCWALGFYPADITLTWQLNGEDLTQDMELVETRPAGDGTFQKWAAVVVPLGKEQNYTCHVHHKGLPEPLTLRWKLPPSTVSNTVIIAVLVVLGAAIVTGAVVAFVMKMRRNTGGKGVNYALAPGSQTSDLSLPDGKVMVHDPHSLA

[10] = molecular target: H-2 K^k (Mus musculus, UniProt P04223)
H-2 K^k, sequence (P01887 21-119): as the sequence (P01887 21-119) above
H-2 K^k, sequence (P04223 22-369): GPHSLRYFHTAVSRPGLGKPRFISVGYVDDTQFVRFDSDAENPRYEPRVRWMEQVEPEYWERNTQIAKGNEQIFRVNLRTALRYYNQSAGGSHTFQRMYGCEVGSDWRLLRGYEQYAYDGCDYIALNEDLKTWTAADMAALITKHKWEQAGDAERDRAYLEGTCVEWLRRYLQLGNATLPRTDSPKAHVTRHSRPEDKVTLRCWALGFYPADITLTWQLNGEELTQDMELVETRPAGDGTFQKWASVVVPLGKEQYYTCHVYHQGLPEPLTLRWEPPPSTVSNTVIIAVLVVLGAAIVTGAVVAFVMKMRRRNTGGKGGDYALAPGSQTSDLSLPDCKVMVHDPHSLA

[11] = molecular target: H-2 D^b (Mus musculus, UniProt P01899)
H-2 D^b, sequence (P01887 21-119): as the sequence (P01887 21-119) above
H-2 D^b, sequence (P01899 25-362): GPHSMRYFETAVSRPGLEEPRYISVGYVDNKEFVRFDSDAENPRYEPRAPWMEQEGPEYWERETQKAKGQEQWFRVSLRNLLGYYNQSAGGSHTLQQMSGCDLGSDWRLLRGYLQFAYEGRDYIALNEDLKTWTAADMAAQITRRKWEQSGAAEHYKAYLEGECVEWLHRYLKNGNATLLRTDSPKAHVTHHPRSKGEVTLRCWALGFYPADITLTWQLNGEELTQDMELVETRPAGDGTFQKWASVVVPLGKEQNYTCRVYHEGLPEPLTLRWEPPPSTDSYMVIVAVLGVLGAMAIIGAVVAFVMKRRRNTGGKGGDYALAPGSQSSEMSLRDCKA

[12] = molecular target: HLA B*5101 (Homo sapiens, UniProt P01889, A329T/A93T/A95T/C349S/D138N/D201E/D98Y/E187L/E204Q/E69T/G107R/I218V/K202T/L105A/L119W/N104I/Q94N/R106L/R155S/R180L/S101N/S121T/S35A/S48A/V306I/V36M/Y195H/Y91F)
[13] = molecular target: HLA B*5802 (Homo sapiens, UniProt P01889, A329T/C349S/D201E/D98Y/E176V/E187L/E204Q/E69T/G107R/I218V/I90N/K202T/L105A/N104I/N87E/Q89R/Q94S/R106L/R155S/R180L/R86G/S101N/S121W/S35A/S48A/V127L/V306I/V36M/Y140S/Y91M)
[14] = molecular target: HLA A*6802 (Homo sapiens, UniProt P04439, A269V/D140Y/D185E/E176V/E277Q/E87N/F33Y/G231S/I121R/I166T/I218V/L180W/L300P/L318F/N151K/P208A/P217A/Q86R/R138H/R169H/S129P/T345S/V36M)
[15] = molecular target: HLA B*5801 (Homo sapiens, UniProt P01889, A329T/C349S/D201E/D98Y/E176V/E187L/E204Q/E69T/G107R/I218V/I90N/K202T/L105A/L119I/N104I/N87E/Q89R/Q94S/R106L/R155S/R180L/R86G/S101N/S121R/S35A/S48A/T118I/V127L/V306I/V36M/Y140S/Y91M)
[16] = molecular target: HLA B*5301 (Homo sapiens, UniProt P01889, A329T/A93T/A95T/C349S/D201E/D98Y/E176V/E187L/E204Q/E69T/G107R/I218V/K202T/L105A/L119I/N104I/Q94N/R106L/R155S/R180L/S101N/S121R/S35A/S48A/T118I/V127L/V306I/V36M/Y140S/Y91F)

## CC(C)C[C@H](NC(=O)[C@H](CCCCN)NC(=O)[C@H](CCCCN)NC(=O)[C@H](Cc1ccc(O)cc1)NC(=O)[C@H](CC(C)C)NC(=O)[C@@H](NC(=O)[C@@H](N)Cc1ccc(O)cc1)[C@@H](C)O)C(=O)N[C@@H](CO)C(=O)N[C@@H](Cc1ccccc1)C(=O)O [3102.0333] (H-YTLYKKLSF-OH)
[1]
  pIC50: 6.71
[2]
  pIC50: 7.80
[3]
  pIC50: 7.64
[4]
  pIC50: 7.85

## CC(C)C[C@H](NC(=O)[C@H](CC(C)C)NC(=O)[C@@H](N)CCCCN)C(=O)N[C@@H](CO)C(=O)N[C@@H](Cc1c[nH]cn1)C(=O)N[C@@H](Cc1ccccc1)C(=O)N[C@@H](Cc1ccc(O)cc1)C(=O)N1CCC[C@H]1C(=O)N[C@@H](C)C(=O)O [3102.0665] (H-KLLSHFYPA-OH)
[1]
  pIC50: 6.89
[2]
  pIC50: 7.09
[5]
  pIC50: 8.27
[4]
  pIC50: 7.41

## CC(C)C[C@H](NC(=O)[C@@H]1CCCN1C(=O)[C@H](CO)NC(=O)[C@H](Cc1ccccc1)NC(=O)[C@H](Cc1ccc(O)cc1)NC(=O)[C@H](CCCCN)NC(=O)[C@H](C)NC(=O)[C@@H](NC(=O)[C@H](C)N)C(C)C)C(=O)O [3102.0978] (H-AVAKYFSPL-OH)
[1]
  pIC50: 6.55
[2]
  pIC50: 6.72
[4]
  pIC50: 7.80

## CC(C)C[C@H](NC(=O)[C@@H](N)CC(C)C)C(=O)N[C@@H](Cc1ccccc1)C(=O)N[C@@H](Cc1ccc(O)cc1)C(=O)N[C@H](C(=O)N[C@@H](CCCNC(=N)N)C(=O)N[C@@H](Cc1c[nH]cn1)C(=O)N[C@@H](CCCNC(=N)N)C(=O)N[C@@H](Cc1ccccc1)C(=O)O)[C@@H](C)O [3102.1058] (H-LLFYTRHRF-OH)
[1]
  pIC50: 8.59
[2]
  pIC50: 7.34
[5]
  pIC50: 9.68
[4]
  pIC50: 9.07

## XXXEXXXXX [3064.0064]
[1]
  Normalized average relative binding affinity(ARB): 0.36
[2]
  Normalized average relative binding affinity(ARB): 0.24
[6]
  Normalized average relative binding affinity(ARB): 0.15
[7]
  Normalized average relative binding affinity(ARB): 0.38
[8]
  Normalized average relative binding affinity(ARB): 0.087
[3]
  Normalized average relative binding affinity(ARB): 0.34
[5]
  Normalized average relative binding affinity(ARB): 0.25
[9]
  Normalized average relative binding affinity(ARB): 0.18
[10]
  Normalized average relative binding affinity(ARB): 0.41
[11]
  Normalized average relative binding affinity(ARB): 0.35
[12]
  Normalized average relative binding affinity(ARB): 0.46
[4]
  Normalized average relative binding affinity(ARB): 0.27
[13]
  Normalized average relative binding affinity(ARB): 0.18
[14]
  Normalized average relative binding affinity(ARB): 0.14
[15]
  Normalized average relative binding affinity(ARB): 0.21
[16]
  Normalized average relative binding affinity(ARB): 0.24

## XXXFXXXXX [3064.0065]
[1]
  Normalized average relative binding affinity(ARB): 1.0
[2]
  Normalized average relative binding affinity(ARB): 0.55
[6]
  Normalized average relative binding affinity(ARB): 0.31
[7]
  Normalized average relative binding affinity(ARB): 0.96
[8]
  Normalized average relative binding affinity(ARB): 0.10
[3]
  Normalized average relative binding affinity(ARB): 1.0
[5]
  Normalized average relative binding affinity(ARB): 0.41
[9]
  Normalized average relative binding affinity(ARB): 0.098
[10]
  Normalized average relative binding affinity(ARB): 0.38
[11]
  Normalized average relative binding affinity(ARB): 0.38
[12]
  Normalized average relative binding affinity(ARB): 0.64
[4]
  Normalized average relative binding affinity(ARB): 0.42
[13]
  Normalized average relative binding affinity(ARB): 0.45
[14]
  Normalized average relative binding affinity(ARB): 0.74
[15]
  Normalized average relative binding affinity(ARB): 0.31
[16]
  Normalized average relative binding affinity(ARB): 0.21

## XXXGXXXXX [3064.0066]
[1]
  Normalized average relative binding affinity(ARB): 0.33
[2]
  Normalized average relative binding affinity(ARB): 0.063
[6]
  Normalized average relative binding affinity(ARB): 0.062
[7]
  Normalized average relative binding affinity(ARB): 0.17
[8]
  Normalized average relative binding affinity(ARB): 0.17
[3]
  Normalized average relative binding affinity(ARB): 0.50
[5]
  Normalized average relative binding affinity(ARB): 0.19
[9]
  Normalized average relative binding affinity(ARB): 0.14
[10]
  Normalized average relative binding affinity(ARB): 0.19
[11]
  Normalized average relative binding affinity(ARB): 0.088
[12]
  Normalized average relative binding affinity(ARB): 0.47
[4]
  Normalized average relative binding affinity(ARB): 0.23
[13]
  Normalized average relative binding affinity(ARB): 0.15
[14]
  Normalized average relative binding affinity(ARB): 0.26
[15]
  Normalized average relative binding affinity(ARB): 0.21
[16]
  Normalized average relative binding affinity(ARB): 0.18

## XXXHXXXXX [3064.0067]
[1]
  Normalized average relative binding affinity(ARB): 0.32
[2]
  Normalized average relative binding affinity(ARB): 0.26
[6]
  Normalized average relative binding affinity(ARB): 0.21
[7]
  Normalized average relative binding affinity(ARB): 0.53
[8]
  Normalized average relative binding affinity(ARB): 0.16
[3]
  Normalized average relative binding affinity(ARB): 0.45
[5]
  Normalized average relative binding affinity(ARB): 0.29
[9]
  Normalized average relative binding affinity(ARB): 0.22
[10]
  Normalized average relative binding affinity(ARB): 0.13
[11]
  Normalized average relative binding affinity(ARB): 0.29
[12]
  Normalized average relative binding affinity(ARB): 0.18
[4]
  Normalized average relative binding affinity(ARB): 0.19
[13]
  Normalized average relative binding affinity(ARB): 0.32
[14]
  Normalized average relative binding affinity(ARB): 0.30
[15]
  Normalized average relative binding affinity(ARB): 0.40
[16]
  Normalized average relative binding affinity(ARB): 0.089

## XXXIXXXXX [3064.0068]
[1]
  Normalized average relative binding affinity(ARB): 0.15
[2]
  Normalized average relative binding affinity(ARB): 0.38
[6]
  Normalized average relative binding affinity(ARB): 0.16
[7]
  Normalized average relative binding affinity(ARB): 0.79
[8]
  Normalized average relative binding affinity(ARB): 1.0
[3]
  Normalized average relative binding affinity(ARB): 0.34
[5]
  Normalized average relative binding affinity(ARB): 0.26
[9]
  Normalized average relative binding affinity(ARB): 0.22
[10]
  Normalized average relative binding affinity(ARB): 0.39
[11]
  Normalized average relative binding affinity(ARB): 0.87
[12]
  Normalized average relative binding affinity(ARB): 1.0
[4]
  Normalized average relative binding affinity(ARB): 0.27
[13]
  Normalized average relative binding affinity(ARB): 0.33
[14]
  Normalized average relative binding affinity(ARB): 0.088
[15]
  Normalized average relative binding affinity(ARB): 0.23
[16]
  Normalized average relative binding affinity(ARB): 0.18

## XXXKXXXXX [3064.0069]
[1]
  Normalized average relative binding affinity(ARB): 0.39
[2]
  Normalized average relative binding affinity(ARB): 0.52
[6]
  Normalized average relative binding affinity(ARB): 0.42
[7]
  Normalized average relative binding affinity(ARB): 0.39
[8]
  Normalized average relative binding affinity(ARB): 0.097
[3]
  Normalized average relative binding affinity(ARB): 0.32
[5]
  Normalized average relative binding affinity(ARB): 0.30
[9]
  Normalized average relative binding affinity(ARB): 0.23
[10]
  Normalized average relative binding affinity(ARB): 0.26
[11]
  Normalized average relative binding affinity(ARB): 0.43
[12]
  Normalized average relative binding affinity(ARB): 0.90
[4]
  Normalized average relative binding affinity(ARB): 0.43
[13]
  Normalized average relative binding affinity(ARB): 0.55
[14]
  Normalized average relative binding affinity(ARB): 0.095
[15]
  Normalized average relative binding affinity(ARB): 0.44
[16]
  Normalized average relative binding affinity(ARB): 0.12
